Values quoted from earlier work in patent US20080200434A1, “Chemical Target-Binding Compositions” (priority 2006, published 2008).

How the values were obtained:
[1] = aqueous association with glucose; Lorand and Edwards 1959
[2] = chronic exposure (Hubbard, S. A. 1998)

## OB(O)c1ccccc1 [phenylboronic acid]
[1]
  Kd: 9.1 mM

## OB(O)O [boric acid]
[2]
  no observed adverse effect level: 9-43 mg boron/kg/day
